US20240365773A1, “USE OF APOPTOSIS INHIBITORS FOR COLD STORAGE OF BLOOD PLATELETS” (DRK-BLUTSPENDEDIENST BADEN-WUERTTEMBERG-HESSEN GGMBH, priority 2021, published 2024)
Entries after “also recorded” stand apart in the source; their conditions may differ. Peptide text beside a SMILES is read from it. * marks the point of attachment. Cbz = O=C(OCc1ccccc1)*; CH2F = FC*

How the values were obtained:
Format in all cases: cell-based, human
[1] = test system: cold-stored PLTs; assay: Platelet adhesion on fibrinogen coated coverslips; settings: for Number of adherent cells (day 4) / Number of adherent cells (day 7): cold-stored PLTs, TRAP; for Number of adherent cells (day 4): day 4, fibrinogen coated coverslips; for Number of adherent cells (day 7): day 7, fibrinogen coated coverslips
Protocol: Coverslips (Corning, New York, USA) were coated with […] of fibrinogen (Sigma Aldrich, Munich, Germany). After 4 and 7 days of storage PLTs (1×10^8 PLTs/mL) were seeded on coverslips and incubated for 1 hour at room temperature (RT) with TRAP (0.1 mM, Hart Biologicals, Hartlepool, UK). The adherent cells were fixed with 4% paraformaldehyde for 20 minutes (min) at RT. Images were captured from 5 different microscopic fields/coverslips (×100, Olympus IX73, Tokyo, Japan).

[2] = test system: PLTs of 4° C. stored APCs; assay: Platelet aggregation (light transmission PLT aggregation assay); settings: for % PLT aggregation (day 7): 4° C. stored APC
Protocol: (§1) APCs were collected from healthy volunteers according to the German guidelines for haemotherapy. Ten individuals donated two units of APCs collected with FENWAL AMICUS (Amicus, Fresenius Kabi, Bad Homburg, Germany) and stored in plasma or in PAS (SSP+, Macopharma, Langen, Germany) at 35% final plasma concentration at 4° C. and RT.
(§2) Appropriate concentration for the inhibitors was determined prior to experiments, by titrating different concentrations. Directly after the collection, the APCs were stored for an hour without agitation. APCs were split further into different culture bags under aseptic conditions and stored in sterile, oxygen permeable bag (Fresenius Kabi A G, Bad Homburg, Germany). APCs were treated with 150 μM RhoA inhibitor G04, 0.75 μM […] (PKA) activator forskolin or 40 μM Caspase-9 inhibitor z-LEHD-fmk. […] APCs without any additions were used as a negative control. After 2 hours of treatment at RT, all the samples except the control at RT, were stored at 4° C. under constant gentle agitation. All samples were activated with thrombin receptor-activating peptide TRAP ([…], HART Biologicals) prior to measurements.
PLT function was analyzed by FC and light transmission PLT aggregation assay (LTA) using a 4-channel-aggregometer (Labitec, Ahrensburg, Germany). Collagen (8 μg/ml), ristocetin ([…]) (both Molab, Langenfeld, Germany) or ADP (80 μM, Nycomed, Konstanz, Germany) were used as inductors.

[3] = test system: PLTs of 4° C. stored APCs; assay: Measurement of mitochondrial transmembrane potential; settings: APCs stored at 4° C.
Protocol: as §1, §2

[4] = test system: PLTs of 4° C. stored APCs; assay: PLT viability of cold stored APCs treated with apoptosis inhibitors; settings: for % PLT viability (day 10): 4° C. stored APC; for % viable cells: APCs stored at 4° C., G04 150 μM, forskolin 0.75 μM
Protocol: as §1, §2

[5] = test system: PLTs from APCs; assay: Determination of apoptosis (Annexin V-FITC staining); settings: for % Apoptosis (day 10): 4° C. stored APC; for % apoptotic cells: APCs stored at 4° C., forskolin 0.75 μM, z-LEHD-fmk 40 μM
Protocol: as §1, §2
PLTs from APCs were washed, resuspended with 1 mM CaCl2 and stained with Annexin V-FITC (Beckman Coulter) for 60 min at RT. Freshly isolated PLTs were incubated with 10 μM ionomycin (Abcam, Cambridge, UK) and used as positive control.

[6] = test system: PLTs of 4° C. stored APCs; assay: Functional analysis of cold stored APCs (all functional parameters); settings: treated vs untreated
Protocol: PLTs (10×10^6/mL) were incubated with TRAP6 (20 μM) for 30 min at 37° C., fixed with 4% PFA for 20 min at RT. The expression of CD62P (CLBThromb/6, Beckman Coulter) and CD63 (CLBGran/12, Beckman Coulter) was determined by FC. The conformational changes of glycoproteins (GPs) IIb/IIIa complex upon activation with TRAP were detected by PAC-1-antibody (BD Bioscience) using FC. PLT function was analyzed by FC and light transmission PLT aggregation assay (LTA) using a 4-channel-aggregometer (Labitec, Ahrensburg, Germany). Collagen (8 μg/ml), ristocetin ([…]) (both Molab, Langenfeld, Germany) or ADP (80 μM, Nycomed, Konstanz, Germany) were used as inductors.

[7] = test system: cold-stored PLTs; assay: Thrombin generation (calibrated automated thrombogram); settings: each storage time point, vs buffer/untreated
Protocol: Thrombin generation was quantified performing a fluorescence based-assay using a calibrated automated thrombogram system (CAT, Stago, Maastricht, Netherlands). The fluorescence signal was acquired for 60 min with a 390-nm […] excitation/460-nm emission filter set.

[8] = test system: cold-stored PLTs; assay: Clot formation (thromboelastometer); settings: vs buffer/untreated
Protocol: The clot formation was analysed using a 6-channel thromboelastometer device (Clot Pro, Enicor, Germany) and parameters were automatically calculated by dedicated software.

Compound	Number of adherent cells (day 4) [1]	Number of adherent cells (day 7) [1]	% PLT aggregation (day 7) [2]	mitochondrial transmembrane potential ΔΨm MFI ([3]; day 7) [MFI]	mitochondrial transmembrane potential ΔΨm MFI ([3]; day 10) [MFI]	% PLT viability (day 10) ([4]; day 10) [%]	% viable cells ([4]; day 7) [%]	% viable cells ([4]; day 10, z-LEHD-fmk 40 μM) [%]	% Apoptosis (day 10) ([5]; day 10) [%]	% apoptotic cells ([5]; day 7) [%]	% apoptotic cells ([5]; day 10, G04 150 μM) [%]	PLT functions / functional parameters (overall, in words) [6]	PLT adhesion, number of adherent cells (in words) ([1]; cold-stored PLTs after 4 and 7 days of storage, vs buffer/untreated)	PLT aggregation (in words) ([2]; cold stored APCs, day 4)	PLT viability / survival (in words) ([4]; cold stored APCs)	apoptosis (in words) ([5]; cold stored APCs)	thrombin generation (AUC, area under the curve), in words [7]	clot formation (MCF, maximum clot firmness), in words [8]
C=C[C@@]1(C)CC(=O)[C@]2(O)[C@@]3(C)[C@@H](O)CCC(C)(C)[C@@H]3[C@H](O)[C@H](OC(C)=O)[C@@]2(C)O1 [forskolin]	No significant effect	No significant effect	No significant effect	17.88	11.02	58.95	87.1	58.95	33	9.3	33	–	–	–	–	–	–	–
COC(=O)CC[C@H](NC(=O)[C@H](CC(C)C)NC(=O)OCc1ccccc1)C(=O)N[C@@H](Cc1cnc[nH]1)C(=O)N[C@@H](CC(=O)OC)C(=O)CF [z-LEHD-fmk] (Cbz-LE(OMe)HD(OMe)-CH2F)	No significant effect	No significant effect	No significant effect	–	6.26	60.38	–	60.38	39	9.85	39.00	no significant impact; also recorded: does not affect the diminished PLT function; also recorded: does not affect PLT functions	no significant impact	tendency of decreased PLT aggregation was observed at day 4 after the treatment, but it was not significant	partially restores PLT viability	decreases apoptosis	no significant impact	no significant impact
